“Also recorded” adds a separate entry of the source.
Key:
[1] = system: HTR2C RNA editing; test: Time course of HTR2C RNA editing in SH-SY5Y cells with risk score by the most preferred algorithm (prob(Algorithm)); assay type: cell-based, human; conditions: for prob(Algorithm) risk score / prediction: SH-SY5Y, HTR2C; for time course of HTR2C RNA editing profile: SH-SY5Y cells, 12-48 h; for risk score over time points: most preferred algorithm, each time point
[2] = annotation of the molecule (low/no risk versus high/at risk); cited from earlier work
[3] = system: HTR2C RNA editing; test: Dose-dependent alterations of HTR2C RNA editing profile in SH-SY5Y cells; assay type: cell-based, human; conditions: compared to vehicle-treated cells
Method: Prior to the experiment, the human neuroblastoma cell line (SH-SY5Y) was treated with an increasing dose of interferon and RNA editing of 5HT2cR was measured using NGS based approach.
The RNA editing profiles represent the respective relative proportion of HTR2C RNA editing as compared to vehicle-treated SH-SY5Y cells.

[4] = system: ADAR1a mRNA expression; test: Relative ADAR1a mRNA expression by quantitative PCR in treated SH-SY5Y cells; assay type: cell-based, human; conditions: 48 hours
Method: After cDNA synthesis samples were stored at 4° C. prior analysis of ADAR1a mRNA expression by qPCR on a LC480 system (Roche). qPCR data were quantified using the standard curve method. mRNA expression of ADAR1a is known to be induced by Interferon alpha treatment (IFNα). […] In this way, all samples of the same batch could be analysed in a single qPCR run. […] This response could be seen in all biological replicates (n=5). […] The coefficient of variation of 9.31% clearly illustrates the reproducibility of the biological phenomenon.

In the case of `O=C1CCc2ccc(OCCCCN3CCN(c4cccc(Cl)c4Cl)CC3)cc2N1` [Aripiprazole], the “prob(Algorithm) risk score” value ([1]; 12 h treatment) is reported as 0.528, the prediction ([1]; 24 h treatment) is reported as “Pos” and the “prob(Algorithm) risk score” value ([1]; 24 h treatment) is reported as 0.632. The prediction ([1]; 48 h treatment) was “Pos”, the “prob(Algorithm) risk score” value ([1]; 48 h treatment) was 0.760 and the “time course of HTR2C RNA editing profile” value [1] was “time-dependent alterations of the RNA editing profile”. For the same compound, the “risk score over time points” value [1] was “identified positively at risk starting from 24 hours and beyond” and the “risk class to induce psychiatric adverse side effect in a patient” value (shortened to “risk class”) [2] was “at risk”.

In the case of `CNCCC(Oc1ccc(C(F)(F)F)cc1)c1ccccc1` (centres unmarked) [Fluoxetine], the “risk class” value [2] is listed as “high risk”.

In the case of `CC1=C(/C=C/C(C)=C/C=C/C(C)=C\C(=O)O)C(C)(C)CCC1` [Isotretinoin], the “risk class” value [2] is listed as “at risk”.

For `CNC1(c2ccccc2Cl)CCCCC1=O` (centres unmarked) [Ketamine], the “dose dependence of 5-HT2cR/HTR2C RNA editing profile” value [3] is given as “Dose-dependent alterations of RNA editing profiles” and the “risk class” value [2] is given as “low risk”.

For `CCN(CC)CC(=O)Nc1c(C)cccc1C` [Lidocaine], the “risk class” value [2] is given as “low or no risk”.

In the case of `[Li]` [Lithium], the “risk class” value [2] is listed as “low risk”.

For `COC(=O)[C@H]1[C@H]2C[C@@H]3c4[nH]c5cc(OC)ccc5c4CCN3C[C@H]2C[C@@H](OC(=O)c2cc(OC)c(OC)c(OC)c2)[C@@H]1OC` [Reserpine], the “effect on ADAR1a mRNA expression” value [4] was “consistently increase ADAR1a mRNA levels”, the prediction ([1]; 12 h treatment) was “Pos” and the “prob(Algorithm) risk score” value ([1]; 12 h treatment) was 0.878. The prediction ([1]; 24 h treatment) was “Pos”, the “prob(Algorithm) risk score” value ([1]; 24 h treatment) was 0.986 and the prediction ([1]; 48 h treatment) was “Pos”. The “prob(Algorithm) risk score” value ([1]; 48 h treatment) was 0.976, the “time course of HTR2C RNA editing profile” value [1] was “time-dependent alterations of the RNA editing profile” and the “risk score over time points” value [1] was “risk scores were high at all time points”. For the same compound, the “risk class” value [2] was “high risk”.

In the case of `NC(=O)c1ncn([C@@H]2O[C@H](CO)[C@@H](O)[C@H]2O)n1` [Ribavirin], the “risk class” value [2] is listed as “low risk”.

For `CN[C@H]1CC[C@@H](c2ccc(Cl)c(Cl)c2)c2ccccc21` [Sertraline], the “dose dependence of 5-HT2cR/HTR2C RNA editing profile” value [3] is listed as “Dose-dependent alterations of RNA editing profiles” and the “risk class” value [2] is listed as “at risk”.

For `C[C@H](NC(=O)C(C)(C)Oc1ccc(C(F)(F)F)cn1)[C@@H](Cc1ccc(Cl)cc1)c1cccc(C#N)c1` [Taranabant], the “risk class” value [2] is given as “at risk”.

With `COC(=O)[C@H]1[C@H]2C[C@@H]3c4[nH]c5cc(OC)ccc5c4CCN3C[C@H]2C[C@@H](OC(=O)c2cc(OC)c(OC)c(OC)c2)[C@@H]1OC` [molecule 165] the “effect on ADAR1a mRNA expression” value [4] was “induced ADAR1a mRNA expression; also recorded: strong increase of ADAR1a mRNA expression levels”.

Source: patent US20250270645A1, “ALGORITHM AND AN IN VITRO METHOD BASED ON RNA EDITING TO SELECT PARTICULAR EFFECT INDUCED BY ACTIVE COMPOUNDS” (ALCEDIAG, priority 2016, published 2025)
